The values that follow come from patent publication US8349571B2, “High content screening” (Cellaura Technologies Limited, priority 2004, dated 2013).

Format in all cases: cell-based
The target of experiment [1] is T1, A1-AR tagged on the C-terminus with a green fluorescent protein (Homo sapiens, UniProt P30542).
T1 construct: expressed in transfected cells; host or cells: CHO (CHO-A1Tpz)
T1 sequence (P30542 1-326): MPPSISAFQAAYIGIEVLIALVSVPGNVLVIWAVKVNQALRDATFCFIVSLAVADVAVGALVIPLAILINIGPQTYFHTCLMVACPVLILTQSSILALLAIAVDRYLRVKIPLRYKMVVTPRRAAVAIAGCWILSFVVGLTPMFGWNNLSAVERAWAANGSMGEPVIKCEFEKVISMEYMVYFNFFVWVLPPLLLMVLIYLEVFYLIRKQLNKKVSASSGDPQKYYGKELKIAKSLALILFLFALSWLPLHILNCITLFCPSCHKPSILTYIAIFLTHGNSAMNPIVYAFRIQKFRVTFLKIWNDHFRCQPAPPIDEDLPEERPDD
As to the kind of experiment: Live cell confocal imaging in CHO cells expressing A1-AR tagged with green fluorescent protein (CHO-A1Tpz). The procedure:
(§1) Functional studies were performed in CHO-K1 cells expressing both the human A1-AR and a c-fos-pGL3 reporter vector (CHO-A1fos cells). […] Luciferase expression was quantified using a Luclite® kit according to manufacturer's instructions. Live cell confocal imaging was carried out on CHO-A1 cells or CHO cells expressing the A1-AR tagged on the C-terminus with a green fluorescent protein (CHO-A1Tpz).

The target in experiment [2] is T2, human A1-AR (Homo sapiens, UniProt P30542).
T2 construct: expressed in transfected cells; host or cells: CHO-K1 (CHO-A1fos)
T2 sequence (P30542 1-326): T1 sequence (P30542 1-326)
Description: c-fos-pGL3 luciferase reporter functional study in CHO-A1fos cells. The procedure:
as §1
(In general: A reporter such as luciferase makes a cellular process visible.)

Experiment [3] addresses T2, human A1-AR. Description: Live cell confocal imaging of fluorescent ligand binding in CHO-A1 cells. The note with it: 100 nM BY630-ABEA. The procedure: as §1

Turning to XAC-BODIPY 630/650 [BODIPY-XAC], the “specificity of ligand binding from overlaid red and green channel images (FIG. 4A)” value in experiment [1] (50 nM, 15′, CHO cells (A1-R-Topaz)) was “ligand binding is specific to receptors”.

For NECA-BODIPY 630/650 [BY630-ABEA], at human A1-AR [2] (CHO-A1fos cells, 5 h agonist stimulation, mean s.e.mean), the “pEC50, stimulation of luciferase expression” value is 6.76±0.18. In addition, the “specificity of ligand binding from overlaid red and green channel images (FIG. 4B)” value in experiment [1] (100 nM, 30′, CHO cells (A1-R-Topaz)) was “ligand binding is specific to receptors”. In addition, the “co-localisation of ligand fluorescence with tagged receptor” value in experiment [1] (CHO-A1Tpz cells) was “co-localisation of ligand fluorescence at the membrane with that from the fluorescently tagged A1-AR”. On human A1-AR [3] (CHO-A1 cells, n=3), the “time after which binding of ligand to the membrane was detectable” value came out at 5 min and the “time after which binding of ligand to the membrane was substantial” value came to 30 min.

Regarding `CCCn1c(=O)c2[nH]c(C3CCCC3)nc2n(CCC)c1=O` [DPCPX, 8-cyclopentyl-1,3-dipropylxanthine, reference compound], on human A1-AR [2] (100 nM DPCPX, n=3), the “effect on the response to BY630-ABEA” value is reported as “completely blocked the response to BY630-ABEA”. Also, the “effect of preincubation on BY630-ABEA membrane binding” value at human A1-AR [3] (DPCPX 1 μM, 30 min preincubation) is “substantially reduced”.
